Reference: patent US20240116877A1, “KIT KINASE INHIBITORS AND METHODS OF USE THEREOF” (Deciphera Pharmaceuticals, LLC, priority 2021, published 2024)
Where two headings read alike, the source gives them in different places.

How the values were obtained:
GIST 430 cells = experiment: GIST 430 Cell Proliferation Assay (resazurin); format: cell-based; conditions: Homo sapiens; GIST430 cell proliferation
Procedure: GIST 430 Cell Proliferation Assay
(§1) A serial dilution of test compound was dispensed into a 96-well black clear bottom plate (Corning, Corning, NY). Five thousand cells were added per well in 200 μL complete growth medium. Plates were incubated for 115 h at 37 degrees Celsius, 5% CO2, 95% humidity. At the end of the incubation period 40 μL of a 440 μM solution of resazurin (Sigma, St. Louis, MO) in PBS was added to each well and incubated for an additional 5 h at 37 degrees Celsius, 5% CO2, 95% humidity. Plates were read on a Synergy2 reader (Biotek, Winooski, VT) using an excitation of 540 nm and an emission of 600 nm. Data was analyzed using Prism software (Graphpad, San Diego, CA) to calculate IC50 values.

c-KIT kinase (uKIT) = c-KIT kinase (uKIT) (Homo sapiens (Human), UniProt P10721); experiment: Biochemical Assay for uKIT (coupled pyruvate kinase/lactate dehydrogenase assay); conditions: Inhibition of biochemical activity of uKIT kinase; 1 mM ATP
c-KIT kinase (uKIT), sequence (P10721 other isoform, or with tags, fused parts or gaps): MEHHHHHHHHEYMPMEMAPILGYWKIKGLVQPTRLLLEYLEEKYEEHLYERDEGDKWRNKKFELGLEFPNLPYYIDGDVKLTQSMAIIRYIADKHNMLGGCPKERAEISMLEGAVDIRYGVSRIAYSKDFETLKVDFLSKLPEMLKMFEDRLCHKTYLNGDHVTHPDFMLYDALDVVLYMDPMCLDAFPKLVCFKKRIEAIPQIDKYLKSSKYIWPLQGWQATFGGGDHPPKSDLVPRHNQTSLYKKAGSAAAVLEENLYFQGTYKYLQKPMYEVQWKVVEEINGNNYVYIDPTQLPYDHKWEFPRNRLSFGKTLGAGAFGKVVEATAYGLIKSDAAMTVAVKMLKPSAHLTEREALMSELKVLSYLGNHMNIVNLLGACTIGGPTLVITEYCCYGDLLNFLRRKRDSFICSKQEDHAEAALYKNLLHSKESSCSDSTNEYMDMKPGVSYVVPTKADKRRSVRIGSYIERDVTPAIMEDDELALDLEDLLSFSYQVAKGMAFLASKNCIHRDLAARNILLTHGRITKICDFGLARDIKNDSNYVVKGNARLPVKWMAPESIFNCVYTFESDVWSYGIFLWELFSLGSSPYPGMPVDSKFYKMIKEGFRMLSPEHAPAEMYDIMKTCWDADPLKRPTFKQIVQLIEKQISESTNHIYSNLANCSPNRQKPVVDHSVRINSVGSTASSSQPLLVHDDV
Procedure: Biochemical Assay for uKIT
Activity of c-KIT kinase (SEQ. ID NO. 1 or SEQ. ID NO. 2) was determined spectroscopically using a coupled pyruvate kinase/lactate dehydrogenase assay that continuously monitors the ATP hydrolysis-dependent oxidation of NADH (e.g., Schindler et al. Science (2000) 289: 1938-1942). Assays were conducted in 384-well plates (100 μL final volume) using 16 nM (Decode, SEQ ID No. 1) or 4.36 nM (Signal Chem, SEQ. ID No. 2), 0.7 mg/mL PE4Y substrate, 1.5 units pyruvate kinase, 2.1 units lactate dehydrogenase, 1 mM phosphoenol pyruvate, 0.28 mM NADH and 1 mM ATP in assay buffer (100 mM Tris, pH 7.5, 15 mM MgCl2, 0.5 mM DTT, 0.1% octyl-glucoside, 0.002% (w/v) BSA, and 0.002% Triton X-100). Inhibition of KIT was measured by adding serial diluted test compound (final assay concentration of 1% DMSO). A decrease in absorption at 340 nm was monitored continuously for 6 h at 30° C. on a multi-mode microplate reader (BioTek). The reaction rate was calculated using the 2-3 h time frame. The reaction rate at each concentration of compound was converted to percent inhibition using controls (i.e., reaction with no test compound and reaction with a known inhibitor) and IC50 values were calculated using software routines in Prism (GraphPad software).

Ba/F3 KIT mutant cells = experiment: Ba/F3 mutant KIT Cell Proliferation Assays (resazurin); format: cell-based; conditions: Mus musculus, BaF3
Procedure: Ba/F3 KIT Mutant Cell Line Transduction and Expansion
Several different KIT cDNA encoding various primary and secondary mutations were cloned into a pLV(Exp]-CMV>(cDNA):IRES:puro vector. These vectors were constructed and packaged by VectorBuilder.
Exponentially grown Ba/F3 cells (1×10^6 cells in 1 ml medium) were infected with 60 μl of viral suspension in a 6-well plate in the presence of mIL-3 (10 ng/ml) and polybrene (7.5 μg/ml) (Vector Builder) and incubated for 16 h. After 16 h, the cells were centrifuged, and viral supernatant was discarded. The cells were then re-suspended in fresh medium and allowed to recover for another day. After 72 h post infection, the cells were seeded with complete medium with mIL-3 and with 1 μg/ml puromycin added to medium for selection. After 48 h, cells without viral infection die, whereas successfully transduced cells were collected and changed to fresh medium with 5 ng/ml of IL-3. After a week or two with gradual withdrawal of mIL3 the cells that can continue to proliferate in the absence of mIL3 were exponentially expanded and were frozen down for banking.
Ba/F3 mutant KIT Cell Proliferation Assays
as §1, with “a 384-well” for “a 96-well”, “NY). Six hundred and twenty-five” for “NY). Five thousand”, “in 50” for “in 200”, “for 68” for “for 115”, “at 37° C.,” for “at 37 degrees Celsius,”, “period 10” for “period 40”

[1] = Ba/F3 KIT AYdup-D816G mutant cell proliferation, read-out: AYdup-D816G IC50
[2] = Ba/F3 KIT AYdup-V654A mutant cell proliferation, read-out: AYdup-V654A IC50
[3] = Ba/F3 KIT exon11del-V654A mutant cell proliferation, read-out: exon11del-V654A IC50
[4] = Ba/F3 KIT exon11del-Y823D mutant cell proliferation, read-out: exon11del-Y823D IC50
[5] = Ba/F3 KIT AYdup mutant cell proliferation, read-out: AYdup IC50

SMILES	IC50 (GIST 430 cells) [nM]	IC50 (c-KIT kinase (uKIT)) [nM]	IC50 (Ba/F3 KIT mutant cells; [1]) [nM]	IC50 (Ba/F3 KIT mutant cells; [2]) [nM]	IC50 (Ba/F3 KIT mutant cells; [3]) [nM]	IC50 (Ba/F3 KIT mutant cells; [4]) [nM]	IC50 (Ba/F3 KIT mutant cells; [5]) [nM]
COCCOc1cc(F)c2c(Nc3ccc(NC(=O)CCCC(C)(C)C)cc3)ncnc2c1 [Example 16]	≤ 10	≤ 10	≤ 10	10 to 100	≤ 10	10 to 100	–
COCCOc1cc(F)c2c(Nc3ccc(NC(=O)NCCC(C)C)cc3)ncnc2c1 [Example 18]	10 to 100	≤ 10	≤ 10	≤ 10	≤ 10	10 to 100	≤ 10
COCCOc1cc(F)c2c(Nc3ccc(NC(=O)NCCC4CC4)cc3)ncnc2c1 [Example 19]	10 to 100	≤ 10	≤ 10	≤ 10	10 to 100	100 to 1000	≤ 10
COCCOc1cc(F)c2c(Nc3ccc(NC(=O)NC4CC(C)(C)C4)nc3)ncnc2c1 [Example 25]	> 1000	100 to 1000	–	> 1000	> 1000	–	–
COCCOc1cc(F)c2c(Nc3ccc(NC(=O)NCCC(C)(C)C#N)cc3)ncnc2c1 [Example 26]	10 to 100	≤ 10	≤ 10	10 to 100	10 to 100	10 to 100	≤ 10
COCCOc1cc(F)c2c(Nc3ccc(NC(=O)NCCC4COC4)cc3)ncnc2c1 [Example 27]	> 1000	100 to 1000	–	> 1000	> 1000	–	–
COCCOc1cc(F)c2c(Nc3ccc(NC(=O)CCC(C)(C)OC)cc3)ncnc2c1 [Example 28]	10 to 100	10 to 100	10 to 100	10 to 100	10 to 100	100 to 1000	–
COCCOc1cc(F)c2c(Nc3ccc(NC(=O)NCCC(C)(C)F)nc3)ncnc2c1 [Example 29]	100 to 1000	100 to 1000	> 1000	> 1000	> 1000	> 1000	–
COCCOc1cc(F)c2c(Nc3ccc(NC(=O)N[C@H]4CC[C@H](C(F)(F)F)CC4)cc3)ncnc2c1 [Example 30]	≤ 10	≤ 10	≤ 10	10 to 100	10 to 100	10 to 100	–
COCCOc1cc(F)c2c(Nc3ccc(NC(=O)CCCC(C)C)cc3)ncnc2c1 [Example 31]	10 to 100	≤ 10	≤ 10	10 to 100	10 to 100	100 to 1000	10 to 100
COCCOc1cc(F)c2c(Nc3ccc(NC(=O)NCCC4(OC)CC4)cc3)ncnc2c1 [Example 32]	10 to 100	≤ 10	≤ 10	10 to 100	10 to 100	10 to 100	≤ 10
COCCOc1cc(F)c2c(Nc3ccc(NC(=O)NC4CCC(F)(F)CC4)cc3)ncnc2c1 [Example 33]	10 to 100	10 to 100	10 to 100	10 to 100	100 to 1000	100 to 1000	–
COCCOc1cc(F)c2c(Nc3ccc(NC(=O)NC4CCC(C)(C)C4)cc3)ncnc2c1 (stereo not drawn) [Example 34]	10 to 100	≤ 10	≤ 10	10 to 100	≤ 10	10 to 100	–
COCCOc1cc(F)c2c(Nc3ccc(NC(=O)NCCC4(C#N)CC4)cc3)ncnc2c1 [Example 35]	10 to 100	≤ 10	10 to 100	10 to 100	10 to 100	10 to 100	≤ 10
COCCOc1cc(F)c2c(Nc3ccc(NC(=O)N[C@H]4CC[C@@H](C(F)(F)F)CC4)cc3)ncnc2c1 [Example 36]	10 to 100	≤ 10	10 to 100	10 to 100	≤ 10	100 to 1000	–
COC(C)(C)CCNC(=O)Nc1ccc(Nc2ncnc3cc(OCCN4CCOCC4)cc(F)c23)cc1 [Example 37]	≤ 10	10 to 100	10 to 100	10 to 100	10 to 100	10 to 100	≤ 10
COCCOc1cc(F)c2c(Nc3ccc(NC(=O)NCCOC(C)(C)C)cc3)ncnc2c1 [Example 38]	≤ 10	10 to 100	≤ 10	10 to 100	≤ 10	≤ 10	≤ 10
CC(C)(F)CCNC(=O)Nc1ccc(Nc2ncnc3cc(OCCN4CCOCC4)cc(F)c23)cc1 [Example 39]	≤ 10	≤ 10	10 to 100	10 to 100	10 to 100	10 to 100	≤ 10
COCCOc1cc(F)c2c(Nc3ccc(NC(=O)CC4CCN(C)CC4)cc3)ncnc2c1 [Example 40]	> 1000	> 1000	–	–	> 1000	–	–
COCCOc1cc(F)c2c(Nc3ccc(NC(=O)CC4CCC(F)(F)CC4)cc3)ncnc2c1 [Example 41]	10 to 100	≤ 10	10 to 100	10 to 100	10 to 100	10 to 100	≤ 10
